{"source": "patent US6867179B1", "about": "“Methods of inducing hair growth and coloration” (Trustees of Boston University, priority 1994, dated 2005)", "key": {"human melanocytes": {"test_system": "human melanocytes", "assay_type": "cell-based"}, "Bcl-2 protein": {"test_system": "Bcl-2 protein", "assay": "Keratinocyte BCL-2 level after NGF deprivation (Western blot)", "assay_type": "cell-based, human", "settings": "medium lacking BPE, 50 ng/ml NGF versus diluent, 24 and 48 hours", "description": "To determine if NGF affects BCL-2 protein level in keratinocytes, cells were maintained in Keratinocyte basal medium until 60-80% confluent. Then cells were provided medium lacking BPE to eliminate exogenous NGF. Duplicate cultures were provided 50 ng/ml NGF or diluent alone.\nTotal keratinocyte proteins were extracted, and BCL-2 levels were determined by Western blot analysis as in Example 6."}, "BCL-2": {"test_system": "BCL-2", "assay": "BCL-2 antisense oligonucleotides in UV-irradiated MM4 cells with or without NGF", "assay_type": "cell-based, human", "settings": "UV 10 mJ/cm^2, NGF 50 ng/ml, 48 hours", "excerpt": "Purified phosphorothioate oligonucleotides were purchased from Quality Controlled Biochemicals, Inc. (Hopkinton, Mass.). 19 mer oligonucleotides were designed based on the published human BCL-2 sequence (Tsujimoto, Y. and Croce, C. M., Proc. Natl. Acad. Sci. USA, 83:5214-5218 (1986)). The sequence chosen was directed against the […] of the coding region starting 4 bases before the methionine initiation site. Nonsense oligonucleotides were used as control. Sequences used (all written 5′ to 3′): Antisense CCCAGCGTGCGCCATCCTT (SEQ ID NO: 7); Nonsense CTCCCACTCGTCATTCGAC (SEQ ID NO: 8).\nMM4 cells were maintained in 60 mm diameter tissue culture dishes in 55.3% DME, 27.6% L15, 15% FBS, 1% nonessential amino acids (GIBCO BRL), 2 mM glutamine and 10 µg/ml insulin. Near confluent cells were UV irradiated with 10 mJ/cm^2. Immediately after irradiation cells were incubated with 10 uM antisense or nonsense BCL-2 oligonucleotides in suspension at […] for 30 minutes. Then cells were plated in tissue culture dishes in the presence or absence of NGF (50 ng/ml). Cells were supplemented with fresh oligonucleotides every 12 hours. Cell yield and BCL-2 level were determined 48 hours after irradiation. Cell yield was determined by counting cells in at least three representative field per each condition."}, "p75^NTR": {"biological_target": "T1, p75^NTR (Homo sapiens, UniProt P08138)", "T1 sequence (P08138 29-427)": "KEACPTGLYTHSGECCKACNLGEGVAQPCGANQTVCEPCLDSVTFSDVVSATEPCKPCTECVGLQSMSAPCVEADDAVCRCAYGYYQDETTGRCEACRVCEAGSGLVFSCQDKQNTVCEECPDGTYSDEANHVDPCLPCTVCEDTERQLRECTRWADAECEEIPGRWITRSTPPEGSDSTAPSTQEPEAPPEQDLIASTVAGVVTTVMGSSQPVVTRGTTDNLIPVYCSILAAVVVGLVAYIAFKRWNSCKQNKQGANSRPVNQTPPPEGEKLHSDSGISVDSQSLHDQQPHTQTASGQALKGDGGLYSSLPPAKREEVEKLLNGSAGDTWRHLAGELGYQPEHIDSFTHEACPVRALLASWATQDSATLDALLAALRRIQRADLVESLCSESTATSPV", "assay": "Competition for 125I beta-amyloid 1-40 binding to p75NTR-NIH 3T3 cells", "design": "expressed in transfected cells; host or cells: NIH 3T3 fibroblasts (p75^NTR NIH 3T3 cells, Dobrowsky et al. 1994)", "description": "p75^NTR-NIH 3T3 cells were maintain in DMEM supplemented with 10% FBS in the presence of penicillin (45 ng/ml), streptomycin (68 ng/ml), and hygromycin B (17.5 ng/ml). […] After incubation, 1 mM of disuccinimidyl suberate was added for 30 minutes. Following centrifugation cells were lysed with RIPA buffer (50 mM Tris HCl, pH 8.0, […] NaCl 0.5% sodium deoxycholate 4, 5 mM MgCl2, 1% Triton x-100, 1 mM phenylmethylsulfonylfluoride [PMSF], and 1 microg/ml aprotinin), sonicated for 1-3 seconds and immunoprecipitated with anti p75^NTR antibodies (mouse monoclonal IgG1, Cedarlane Laboratories Ltd., Ontario, Canada) or mouse IgG as control for 16 hours at […] in the presence of 15 microl of protein G plus protein A agarose and 1M NaCl adjusted to pH 8.0. After several washes with 20 mM Tris HCl, pH 8.0, 1M NaCl, 5 mM MgCl2, 0.2% Triton X-100 and 1 mM PMSF, immunoprecipitates were separated over 8% PAGE and subjected to autoradiography. A band of 75-80 kD molecular weight was present only in lysates inmmunoprecipitated with anti p75^NTR antibodies and not lysates inmmunoprecipitated with irrelevant mouse IgG.\np75^NTR-NIH 3T3 cells were incubated for 2 hours at […] in binding medium (DMEM, 10 mM hepes, 0.1 mg/ml cytochrome C, 0.01% Tween 80, 1 mg/ml BSA) with ^125I beta-amyloid 1-40 and increasing concentrations of NGF (0-100 ng/ml). […]"}, "melanocytes": {"test_system": "melanocytes", "assay": "Apoptosis (propidium iodide-positive nuclei) in UV-irradiated melanocytes", "assay_type": "cell-based, human", "settings": "UV 10 mJ/cm^2, 50 ng/ml NGF, 24 hours after irradiation; diluent about 30%", "description": "To determine if melanocyte apoptosis is mediated by p75 NGF-R, cultures were treated as above, and then incubated in the presence of a blocking anti-human p75 NGF-R monoclonal antibody believed to act as a pseudo-ligand for the p75 NGF-R. (Anti-human p75 NGF-R monoclonal antibody courtesy of Moses V. Chao, Cornell University Medical Center, New York, N.Y.; Ross, et al., Proc. Natl. Acad. Sci. 81:6681 (1984)).\nMelanocytes were cultured on 8 chamber tissue culture slides (Nunc Inc., Naperville, Ill.) and were UV irradiated with 10 mJ/cm^2 as above. Four microM of propidium iodide (PI) was added to melanocyte cultures 24 hours after irradiation, for 5 minutes at […]. Cultures were washed with PBS and nuclei were analyzed using a Leitz confocal laser microscope (Leica, Deerfield, Ill.).\nMelanocytes were sham or UV irradiated with 10 mJ/cm^2 and 25 mJ/cm^2. Twenty-four hours after irradiation, […] of propidium iodide was added to cultures as above and cells were viewed with fluorescent phase contrast Nikon microscope. The number of fragmented or homogeneously stained nuclei versus nonstained nuclei was determined in several representative fields and expressed as a percent of total cells. A minimum of 130 cells were counted for each condition.\nMelanocytes were irradiated with 10 mJ/cm^2 or were sham irradiated as in Example 1 and then provided 50 ng/ml NGF or diluent alone. […]"}}}
{"substance": "NGF: nerve growth factor, neurotrophin ligand of p75 NGF-R and trk", "values": [{"measurement": "Cell yields of melanocytes versus diluent alone", "setting": "human melanocytes; UV 10 mJ/cm^2, 50 ng/ml NGF, 7 experiments", "value": "significantly higher"}, {"measurement": "Cell yields, NGF-treated versus control cultures", "setting": "human melanocytes; determined daily for 19 days", "value": "up to 6.5 fold"}, {"measurement": "Thymidine labeling index, NGF-treated versus control cultures", "setting": "human melanocytes; determined daily for 19 days", "value": "≤ 10", "unit": "fold"}, {"measurement": "Appearance of cultures after UV irradiation", "setting": "human melanocytes; melanocytes and MM4 cells, 50 ng/ml NGF", "value": "appeared healthy"}, {"measurement": "BCL-2 level in keratinocytes", "setting": "Bcl-2 protein", "value": "contributes, at least in part, to BCL-2 maintenance"}, {"measurement": "Cell yields, NGF plus nonsense oligonucleotides versus diluent plus nonsense", "setting": "BCL-2", "value": "significantly higher"}, {"measurement": "Competition with beta-amyloid for p75NTR binding", "setting": "p75^NTR", "value": "could be competed off by NGF"}, {"measurement": "Maximum inhibition of 125I beta-amyloid binding", "setting": "p75^NTR; NGF 100 ng/ml, 2 hours", "value": 38, "unit": "%"}, {"measurement": "Nuclei showing fragmentation (propidium iodide positive)", "setting": "melanocytes", "value": 12, "unit": "%"}]}
